Results from patent US7420056B2, “Substituted bicyclic imidazo-3-ylamine compounds” (Gruenenthal GmbH, priority 2004, dated 2008).
pIC50: −log10 of the molar value. Counter-ions that a name gives are not always drawn.

Molecular target: mGluR5 receptor (Sus scrofa, UniProt I3LUI7)
Test: Affinity for the mGluR5 receptor: inhibition of 3[H]-MPEP binding in pig brain homogenate
Details: 3[H]-MPEP binding
How it was run: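 Test compounds were screened at 10 μM for displacement of 5 nM [3H]-MPEP from pig brain homogenate (450 μg protein, pH 8.0 Hepes buffer) over 60 min at room temperature. After filtration, scintillation counting gave the read-out. 10 μM unlabelled MPEP set nonspecific binding.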

Chain of mGluR5 receptor (I3LUI7 19-1212): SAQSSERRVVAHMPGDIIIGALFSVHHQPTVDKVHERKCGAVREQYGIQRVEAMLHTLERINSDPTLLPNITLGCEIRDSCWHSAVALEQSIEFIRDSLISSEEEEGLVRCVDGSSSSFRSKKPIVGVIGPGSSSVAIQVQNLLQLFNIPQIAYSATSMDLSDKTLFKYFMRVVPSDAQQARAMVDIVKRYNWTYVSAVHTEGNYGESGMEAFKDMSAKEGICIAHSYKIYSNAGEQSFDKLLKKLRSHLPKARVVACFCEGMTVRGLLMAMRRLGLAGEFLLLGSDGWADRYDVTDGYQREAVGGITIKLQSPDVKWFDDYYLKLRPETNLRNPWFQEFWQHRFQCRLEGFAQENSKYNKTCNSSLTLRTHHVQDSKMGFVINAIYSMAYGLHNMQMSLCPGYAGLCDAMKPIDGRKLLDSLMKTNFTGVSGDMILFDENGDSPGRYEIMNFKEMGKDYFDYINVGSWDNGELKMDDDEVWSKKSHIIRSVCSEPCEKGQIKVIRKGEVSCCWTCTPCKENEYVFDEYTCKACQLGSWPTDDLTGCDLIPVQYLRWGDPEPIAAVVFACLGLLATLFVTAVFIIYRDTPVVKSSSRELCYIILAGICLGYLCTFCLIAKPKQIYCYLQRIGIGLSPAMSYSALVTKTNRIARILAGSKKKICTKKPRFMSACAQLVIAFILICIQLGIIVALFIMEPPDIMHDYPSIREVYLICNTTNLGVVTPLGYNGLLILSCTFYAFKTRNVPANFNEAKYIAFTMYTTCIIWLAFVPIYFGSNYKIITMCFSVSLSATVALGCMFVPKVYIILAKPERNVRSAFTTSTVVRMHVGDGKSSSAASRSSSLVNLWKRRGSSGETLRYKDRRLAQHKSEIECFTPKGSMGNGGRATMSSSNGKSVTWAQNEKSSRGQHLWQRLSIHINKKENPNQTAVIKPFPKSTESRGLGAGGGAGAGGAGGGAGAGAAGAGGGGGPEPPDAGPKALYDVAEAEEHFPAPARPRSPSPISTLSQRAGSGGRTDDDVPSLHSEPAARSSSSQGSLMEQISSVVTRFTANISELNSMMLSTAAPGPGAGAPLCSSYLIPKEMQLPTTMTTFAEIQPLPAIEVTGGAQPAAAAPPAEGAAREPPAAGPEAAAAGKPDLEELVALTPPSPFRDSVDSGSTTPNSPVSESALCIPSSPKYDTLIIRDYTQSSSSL

Structure (SMILES)	pIC50
CC(C)(C)Nc1c(-c2nc(C#Cc3ccccc3)cs2)nc2cnccn12 [Example 138, N-tert-butyl-2-(4-(phenylethynyl)thiazol-2-yl)imidazo[1,2-a]pyrazin-3-amine]	4.82
Cc1cccc(C#Cc2ccc(-c3nc4cnccn4c3NC(C)(C)C)s2)c1 [Example 139, N-tert-butyl-2-(5-(m-tolylethynyl)thiophen-2-yl)imidazo[1,2-a]pyrazin-3-amine]	7.15
CC(C)(C)Nc1c(-c2ccc(C#Cc3ccc(C#N)cc3)s2)nc2cnccn12 [Example 144, 4-((5-(3-(tert-butylamino)imidazo[1,2-a]pyrazin-2-yl)thiophen-2-yl)ethynyl)benzonitrile hydrochloride]	5.43
CC(C)(C)Nc1c(-c2cnc(C#Cc3ccccc3)s2)nc2cnccn12 [Example 146, N-tert-butyl-2-(2-(phenylethynyl)thiazol-5-yl)imidazo[1,2-a]pyrazin-3-amine]	7.46
CC(C)(C)Nc1c(-c2ccc(C#Cc3cccc(-n4cccc4)c3)s2)nc2cnccn12 [Example 148, 2-(5-((3-(1H-pyrrol-1-yl)phenyl)ethynyl)thiophen-2-yl)-N-tert-butylimidazo[1,2-a]pyrazin-3-amine hydrochloride]	6.48
CC(C)(C)Nc1c(-c2ccc(C#Cc3cccc([N+](=O)[O-])c3)s2)nc2cnccn12 [Example 150, N-tert-butyl-2-(5-((3-nitrophenyl)ethynyl)thiophen-2-yl)imidazo[1,2-a]pyrazin-3-amine hydrochloride]	6.96
CC(C)(C)Nc1c(-c2ccc(C#Cc3ccccc3O)s2)nc2cnccn12 [Example 153, 2-((5-(3-(tert-butylamino)imidazo[1,2-a]pyrazin-2-yl)thiophen-2-yl)ethynyl)phenol]	5.52
CC(C)(C)Nc1c(-c2ccc(C#Cc3cccc(CN)c3)s2)nc2cnccn12 [Example 154, 2-(5-((3-(aminomethyl)phenyl)ethynyl)thiophen-2-yl)-N-tert-butylimidazo[1,2-a]pyrazin-3-amine]	6.23
CC(C)(C)Nc1c(-c2ccc(C#Cc3ccsc3)s2)nc2cnccn12 [Example 156, N-tert-butyl-2-(5-(thiophen-3-ylethynyl)thiophen-2-yl)imidazo[1,2-a]pyrazin-3-amine hydrochloride]	7.57
CN(C)c1cccc(C#Cc2ccc(-c3nc4cnccn4c3NC(C)(C)C)s2)c1 [Example 157, N-tert-butyl-2-(5-((3-(dimethylamino)phenyl)ethynyl)thiophen-2-yl)imidazo[1,2-a]pyrazin-3-amine hydrochloride]	5.81
Cc1cccc(C#Cc2ccc(-c3nc4cnccn4c3NC(C)(C)C)s2)n1 [Example 158, N-tert-butyl-2-(5-((6-methylpyridin-2-yl)ethynyl)thiophen-2-yl)imidazo[1,2-a]pyrazin-3-amine hydrochloride]	7.48
CNc1cccc(C#Cc2ccc(-c3nc4cnccn4c3NC(C)(C)C)s2)c1 [Example 160, N-tert-butyl-2-(5-((3-(methylamino)phenyl)ethynyl)thiophen-2-yl)imidazo[1,2-a]pyrazin-3-amine hydrochloride]	7.03
Cc1ccc(C#Cc2ccc(-c3nc4cnccn4c3NC(C)(C)C)s2)cc1 [Example 161, N-tert-butyl-2-(5-(p-tolylethynyl)thiophen-2-yl)imidazo[1,2-a]pyrazin-3-amine]	5.11
Cc1ccccc1C#Cc1ccc(-c2nc3cnccn3c2NC(C)(C)C)s1 [Example 162, N-tert-butyl-2-(5-(o-tolylethynyl)thiophen-2-yl)imidazo[1,2-a]pyrazin-3-amine hydrochloride]	5.37
Cc1cc(-c2nc3cnccn3c2NC(C)(C)C)sc1C#Cc1ccccn1 [Example 164, N-tert-butyl-2-(4-methyl-5-(pyridin-2-ylethynyl)thiophen-2-yl)imidazo[1,2-a]pyrazin-3-amine hydrochloride]	7.27
CC(C)(C)Nc1c(-c2ccc(C#Cc3ccccc3[N+](=O)[O-])s2)nc2cnccn12 [Example 166, N-tert-butyl-2-(5-((2-nitrophenyl)ethynyl)thiophen-2-yl)imidazo[1,2-a]pyrazin-3-amine]	4.95
COc1cccc(C#Cc2ccc(-c3nc4cnccn4c3NC(C)(C)C)s2)n1 [Example 168, N-tert-butyl-2-(5-((6-methoxypyridin-2-yl)ethynyl)thiophen-2-yl)imidazo[1,2-a]pyrazin-3-amine]	6.19
COc1cncc(C#Cc2ccc(-c3nc4cnccn4c3NC(C)(C)C)s2)c1 [Example 171, N-tert-butyl-2-(5-((5-methoxypyridin-3-yl)ethynyl)thiophen-2-yl)imidazo[1,2-a]pyrazin-3-amine hydrochloride]	6.44
CC(C)(C)Nc1c(-c2ccc(C#Cc3cncc(C#N)c3)s2)nc2cnccn12 [Example 172, 5-((5-(3-(tert-butylamino)imidazo[1,2-a]pyrazin-2-yl)thiophen-2-yl)ethynyl)nicotinonitrile hydrochloride]	7.44
CSc1cccc(C#Cc2ccc(-c3nc4cnccn4c3NC(C)(C)C)s2)c1 [Example 173, N-tert-butyl-2-(5-((3-(methylthio)phenyl)ethynyl)thiophen-2-yl)imidazo[1,2-a]pyrazin-3-amine]	6.10
COC(=O)c1cccc(C#Cc2ccc(-c3nc4cnccn4c3NC(C)(C)C)s2)c1 [Example 174, methyl-3-((5-(3-(tert-butylamino)imidazo[1,2-a]pyrazin-2-yl)thiophen-2-yl)ethynyl)benzoate]	6.08
CC(C)(C)Nc1c(-c2ccc(C#Cc3ncc(F)cc3F)s2)nc2cnccn12 [Example 175, N-tert-butyl-2-(5-((3,5-difluoropyridin-2-yl)ethynyl)thiophen-2-yl)imidazo[1,2-a]pyrazin-3-amine]	7.29
CC(C)(C)Nc1c(-c2ccc(C#Cc3cccc(C(F)(F)F)c3)s2)nc2cnccn12 [Example 180, N-tert-butyl-2-(5-((3-(trifluoromethyl)phenyl)ethynyl)thiophen-2-yl)imidazo[1,2-a]pyrazin-3-amine hydrochloride]	6.24
Cc1cc(C#Cc2ccccc2)sc1-c1nc2cnccn2c1NC(C)(C)C [Example 182, N-tert-butyl-2-(3-methyl-5-(phenylethynyl)thiophen-2-yl)imidazo[1,2-a]pyrazin-3-amine hydrochloride]	5.05
Cc1cc(C#Cc2ccccn2)sc1-c1nc2cnccn2c1NC(C)(C)C [Example 183, N-tert-butyl-2-(3-methyl-5-(pyridin-2-ylethynyl)thiophen-2-yl)imidazo[1,2-a]pyrazin-3-amine hydrochloride]	6.64
C=Cc1cccc(C#Cc2ccc(-c3nc4cnccn4c3NC(C)(C)C)s2)c1 [Example 184, N-tert-butyl-2-(5-((3-vinylphenyl)ethynyl)thiophen-2-yl)imidazo[1,2-a]pyrazin-3-amine]	6.57

Compounds with a higher pIC50, results first:

pIC50	Structure (SMILES)
7.59	CC(C)(C)Nc1c(-c2ccc(C#Cc3cccc(C#N)c3)s2)nc2cnccn12 [Example 140, 3-((5-(3-(tert-butylamino)imidazo[1,2-a]pyrazin-2-yl)thiophen-2-yl)ethynyl)benzonitrile hydrochloride]
8.55	CC(C)(C)Nc1c(-c2ccc(C#Cc3ccccn3)s2)nc2ncccn12 [Example 141, N-tert-butyl-2-(5-(pyridin-2-ylethynyl)thiophen-2-yl)imidazo[1,2-a]pyrimidin-3-amine]
8.49	CN(c1c(-c2ccc(C#Cc3ccccn3)s2)nc2cnccn12)C(C)(C)C [Example 143, N-tert-butyl-N-methyl-2-(5-(pyridin-2-ylethynyl)thiophen-2-yl)imidazo[1,2-a]pyrazin-3-amine]
7.64	CC(C)(C)Nc1c(-c2ccc(C#Cc3cscn3)s2)nc2cnccn12 [Example 152, N-tert-butyl-2-(5-(thiazol-4-ylethynyl)thiophen-2-yl)imidazo[1,2-a]pyrazin-3-amine hydrochloride]
8.00	CC(C)(C)Nc1c(-c2ccc(C#Cc3ncccc3F)s2)nc2cnccn12 [Example 159, N-tert-butyl-2-(5-((3-fluoropyridin-2-yl)ethynyl)thiophen-2-yl)imidazo[1,2-a]pyrazin-3-amine hydrochloride]
7.74	CC(C)(C)Nc1c(-c2ccc(C#Cc3cccc(F)n3)s2)nc2cnccn12 [Example 165, N-tert-butyl-2-(5-((6-fluoropyridin-2-yl)ethynyl)thiophen-2-yl)imidazo[1,2-a]pyrazin-3-amine]
7.92	CC(C)(C)Nc1c(-c2ccc(C#Cc3ccccn3)s2)nc2c(Cl)nccn12 [Example 167, N-tert-butyl-8-chloro-2-(5-(pyridin-2-ylethynyl)thiophen-2-yl)imidazo[1,2-a]pyrazin-3-amine]
7.96	CC(C)(C)Nc1c(-c2ccc(C#Cc3ccc(F)cn3)s2)nc2cnccn12 [Example 169, N-tert-butyl-2-(5-((5-fluoropyridin-2-yl)ethynyl)thiophen-2-yl)imidazo[1,2-a]pyrazin-3-amine hydrochloride]
7.80	CC(C)(C)Nc1c(-c2cnc(C#Cc3ccncc3)s2)nc2cnccn12 [Example 177, N-tert-butyl-2-(2-(pyridin-4-ylethynyl)thiazol-5-yl)imidazo[1,2-a]pyrazin-3-amine]
7.62	CC(C)(C)Nc1c(-c2ccc(C#Cc3cccc(C=O)c3)s2)nc2cnccn12 [Example 178, 3-((5-(3-(tert-butylamino)imidazo[1,2-a]pyrazin-2-yl)thiophen-2-yl)ethynyl)benzaldehyde]
7.59	CC(C)(C)Nc1c(-c2ccc(C#Cc3cc(C#N)ccc3F)s2)nc2cnccn12 [Example 179, 3-((5-(3-(tert-butylamino)imidazo[1,2-a]pyrazin-2-yl)thiophen-2-yl)ethynyl)-4-fluorobenzonitrile]
7.74	CC(C)(C)Nc1c(-c2cnc(C#Cc3ccccn3)s2)nc2cnccn12 [Example 181, N-tert-butyl-2-(2-(pyridin-2-ylethynyl)thiazol-5-yl)imidazo[1,2-a]pyrazin-3-amine]
